Laboratory results from BigSolDB 2.1.

O=[N+]([O-])c1ccc(O)c2ncccc12
solubility (mole fraction)
Conditions	in acetic acid	in acetone	in acetonitrile	in ethanol	in ethyl acetate	in isopropanol	in methanol	in n-butanol	in n-propanol	in toluene
278.15 K	0.00224	0.00398	0.00113	0.000575	0.00339	0.0005	0.000443	0.000606	0.000562	0.00229
280.65 K	0.00239	0.00429	0.00124	0.000625	0.00369	0.000548	0.000486	0.000663	0.000608	0.00247
283.15 K	0.00259	0.00461	0.00137	0.000682	0.004	0.000605	0.000531	0.000726	0.000675	0.00269
285.65 K	0.0028	0.00498	0.00151	0.00075	0.00437	0.000672	0.000586	0.000797	0.000748	0.00293
288.15 K	0.00303	0.00538	0.00165	0.00082	0.00476	0.000741	0.000643	0.000867	0.000814	0.00317
290.65 K	0.00328	0.0058	0.0018	0.000901	0.00517	0.000816	0.000701	0.000961	0.000899	0.00345
293.15 K	0.00355	0.00624	0.00197	0.000988	0.00564	0.000897	0.000763	0.00105	0.00099	0.00377
295.65 K	0.00383	0.00668	0.00214	0.00108	0.0061	0.000974	0.00083	0.00116	0.00109	0.00408
298.15 K	0.00416	0.00721	0.00233	0.00118	0.00667	0.00107	0.000904	0.00128	0.00119	0.00444
300.65 K	0.00449	0.00773	0.00256	0.00128	0.00724	0.00118	0.000981	0.00139	0.00131	0.00481
303.15 K	0.00484	0.00831	0.00279	0.00139	0.00786	0.00129	0.00107	0.00153	0.00143	0.00518
305.65 K	0.0052	0.00888	0.00304	0.00152	0.00857	0.00141	0.00116	0.00166	0.00157	0.00562
308.15 K	0.00559	0.00956	0.00334	0.00166	0.00929	0.00154	0.00127	0.0018	0.0017	0.00609
310.65 K	0.00601	0.0103	0.00366	0.00182	0.01	0.00168	0.00138	0.00197	0.00186	0.0066
313.15 K	0.00649	0.0111	0.00403	0.00199	0.0109	0.00183	0.00149	0.00217	0.00204	0.00715
